Source: patent US20130267474A1, “NOVEL PHYTOCHEMICALS FROM EXTRACTS OF MAPLE SYRUPS AND MAPLE TREES AND USES THEREOF” (UNIVERSITY OF RHODE ISLAND, priority 2010, published 2013)
Read-outs that look alike come from different tables or passages of the source.

Legend:
[1] = DPPH radical scavenging (antioxidant) assay; format: biochemical; details: for IC50, DPPH radical scavenging, converted (ca.): conversion of the μM value
Description: The DPPH radical scavenging activity of ascorbic acid (vitamin C) and the synthetic commercial antioxidant, butylated hydroxytoluene (BHT) are also assayed as positive controls (see Table 10). […] Absorbance is determined after 30 min at 515 nm, and the scavenging capacity (SC) is calculated as SC %=[(A0−A1/A0)]×100, where A0 is the absorbance of the reagent blank and A1 is the absorbance of the test samples. The control contained all reagents except the compounds, and all tests are performed in triplicate.
Absorbance is determined after 30 min at 515 nm, and the scavenging capacity (SC) is calculated as SC %=[(A0−A1/A0)]×100 where A0 is the absorbance of the reagent blank, and A1 is the absorbance with test samples. The control contained all reagents except the compounds and all tests are performed in triplicate.

[2] = test system: HCT-116 (human colon carcinoma); test: MTS cytotoxicity / antiproliferative assay; format: cell-based
Description: (§1) Cell lines included three human colon cancer cells: HT-29 (human colon adenocarcinoma), HCT116 (human colon carcinoma) and Caco-2 (human epithelial colorectal adenocarcinoma). In addition, normal human colon cells are included: CCD-^18Co (human colon fibroblasts). All cell lines are obtained from the American Type Culture Collection (ATCC, Rockville, Md., USA) and maintained at the University of Rhode Island.
(§2) The assay is carried out to measure the IC50 values for samples. […] Test samples and a positive control, etoposide 4 mg/mL (Sigma), are solubilized in DMSO by sonication. […] Control wells are also included on all plates. […] Each point on the curve is […]. Data (see tables 6 to 9) are expressed as mean±SE for three replications on each cell line.

[3] = test system: HT-29 (human colon adenocarcinoma); test: MTS cytotoxicity / antiproliferative assay; format: cell-based
Description: as §1, §2

[4] = test system: Caco-2 (human epithelial colorectal adenocarcinoma); test: MTS cytotoxicity / antiproliferative assay; format: cell-based
Description: as §1, §2

[5] = Table 10, mean ± standard deviation, 30 min, 515 nm, read-out: IC50 (μM), DPPH radical scavenging
[6] = Homo sapiens, HCT-116, 48 h, read-out: HCT-116 48 h(IC50), Table 6 maple compounds, 48 h, unit inferred
[7] = Homo sapiens, HCT-116, 72 h, Table 6 maple compounds, 72 h, unit inferred, read-out: HCT-116 72 h(IC50)
[8] = Homo sapiens, HT-29, 48 h, read-out: HT-29 48 h(IC50), Table 6 maple compounds, 48 h, unit inferred
[9] = Homo sapiens, HT-29, 72 h, Table 6 maple compounds, 72 h, unit inferred, read-out: HT-29 72 h(IC50)
[10] = Homo sapiens, HCT-116, 48 h, read-out: Antiproliferative activity HCT-116 48 h (IC50), 48 h, pure isolated compounds
[11] = Homo sapiens, HCT-116, 72 h, 72 h, pure isolated compounds, read-out: Antiproliferative activity HCT-116 72 h (IC50)
[12] = Homo sapiens, HCT-116, 72 h, 72 h, range given for the group, read-out: IC50 against HCT-116 cells at 72 h (activity ranking)
[13] = Homo sapiens, HT-29, 72 h, 72 h, pure isolated compounds, read-out: Antiproliferative activity HT-29 72 h (IC50)
[14] = Homo sapiens, Caco-2, 48 h, read-out: Antiproliferative activity Caco-2 48 h (IC50), 48 h, pure isolated compounds
[15] = Homo sapiens, Caco-2, 48 h, read-out: Caco-2 48 h(IC50), Table 6 maple compounds, 48 h, unit inferred
[16] = Homo sapiens, Caco-2, 72 h, 72 h, pure isolated compounds, read-out: Antiproliferative activity Caco-2 72 h (IC50)
[17] = Homo sapiens, Caco-2, 72 h, Table 6 maple compounds, 72 h, unit inferred, read-out: Caco-2 72 h(IC50)
[18] = Homo sapiens, HT-29, 48 h, read-out: Antiproliferative activity HT-29 48 h (IC50), 48 h, pure isolated compounds

2,4,5-trihydroxyacetophenone [compound 13]
IC50 [1, 5]: 68.9 ± 5.7 µM

5-(3″,4″-dimethoxyphenyl)-3-hydroxy-3-(4′-hydroxy-3′-methoxybenzyl)-4-hydroxymethyl-dihydrofuran-2-one [compound 24]
IC50 [1, 5]: 254 ± 32.5 µM

O=C1O[C@H]([C@@H](O)CO)C(O)=C1O [Ascorbic acid, reference compound]
IC50 [1, 5]: 40.2 ± 13.4 µM | IC50, DPPH radical scavenging, converted (ca.) [1]: ca. 7.08 μg/mL | IC50 ([1]; listed as Vitamin C, read-out: IC50, DPPH radical scavenging (text)): 40 µM | IC50 ([1]; listed as vitamin C, read-out: IC50, DPPH radical scavenging (text)): 58 µM

Cc1cc(C(C)(C)C)c(O)c(C(C)(C)C)c1 [BHT, butylated hydroxytoluene, reference compound]
IC50 [1, 5]: 3000 ± 1120 µM | IC50, DPPH radical scavenging, converted (ca.) [1]: ca. 660 μg/mL | IC50 ([1]; running text, listed as butylatedhydroxytoluene, read-out: IC50, DPPH radical scavenging (text)): 2650 µM | IC50 ([1]; running text, read-out: IC50, DPPH radical scavenging (text)): 3000 µM

COc1cc(/C=C/C(=O)O)ccc1O [Ferulic Acid]
IC50 [2, 6]: 119 µM | IC50 [2, 7]: 104 µM | IC50 [3, 8]: 128 µM | IC50 [3, 9]: 121 µM

COc1cc([C@@H](O)[C@@H](CO)Oc2ccc(CCCO)cc2OC)ccc1O [compound 6, erythro-guaiacylglycerol-β-O-4′-dihydroconiferyl alcohol]
IC50 [2, 10]: 107 ± 2.3 µM | IC50 [2, 6]: 107 µM | IC50 [2, 11]: 98.6 ± 3.2 µM | IC50 [2, 12]: 94 to 110 µM | IC50 [2, 7]: 98.6 µM | IC50 [3, 13]: 110 ± 2 µM | IC50 [3, 9]: 110 µM | IC50 [4, 14]: 93.9 ± 2 µM | IC50 [4, 15]: 93.9 µM | IC50 [4, 16]: 88.5 ± 1 µM | IC50 [4, 17]: 88.5 µM

COc1cc(C=O)cc(OC)c1O [compound 16, syringaldehyde]
IC50 ([2]; Homo sapiens, HCT-116, 48 h, read-out: Antiproliferative activity HCT-116 48 h (IC50)): 66.8 ± 1.3 µM | IC50 ([2]; Homo sapiens, HCT-116, 48 h, read-out: HCT-116 48 h(IC50)): 66.8 µM | IC50 ([2]; Homo sapiens, HCT-116, 72 h, read-out: Antiproliferative activity HCT-116 72 h (IC50)): 56.3 ± 1.8 µM | IC50 ([2]; Homo sapiens, HCT-116, 72 h, read-out: HCT-116 72 h(IC50)): 56.3 µM | IC50 ([2]; Homo sapiens, HCT-116, 72 h, read-out: IC50 against HCT-116 cells at 72 h (activity ranking)): 42 to 67 µM | IC50 ([3]; Homo sapiens, HT-29, 48 h, read-out: Antiproliferative activity HT-29 48 h (IC50)): 90.7 ± 3 µM | IC50 ([3]; Homo sapiens, HT-29, 48 h, read-out: HT-29 48 h(IC50)): 90.7 µM | IC50 ([3]; Homo sapiens, HT-29, 72 h, read-out: Antiproliferative activity HT-29 72 h (IC50)): 68.6 ± 1.4 µM | IC50 ([3]; Homo sapiens, HT-29, 72 h, read-out: HT-29 72 h(IC50)): 68.6 µM | IC50 ([4]; Homo sapiens, Caco-2, 48 h, read-out: Antiproliferative activity Caco-2 48 h (IC50)): 59.4 ± 2.7 µM | IC50 ([4]; Homo sapiens, Caco-2, 48 h, read-out: Caco-2 48 h(IC50)): 59.4 µM | IC50 ([4]; Homo sapiens, Caco-2, 72 h, read-out: Antiproliferative activity Caco-2 72 h (IC50)): 35.9 ± 2.4 µM | IC50 ([4]; Homo sapiens, Caco-2, 72 h, read-out: Caco-2 72 h(IC50)): 35.9 µM

O=C(O)c1cc(O)c(O)c(O)c1 [compound 17, gallic acid]
IC50 [2, 10]: 64.9 ± 2.3 µM | IC50 [2, 6]: 64.9 µM | IC50 [2, 11]: 42.1 ± 1.9 µM | IC50 [2, 12]: 42 to 67 µM | IC50 [2, 7]: 42.1 µM | IC50 [4, 16]: 89.3 ± 1.7 µM | IC50 [4, 17]: 89.3 µM

COc1cc(C(=O)O)cc(OC)c1O [compound 19, syringic acid]
IC50 [2, 10]: 119 ± 1.3 µM | IC50 [2, 6]: 119 µM | IC50 [2, 11]: 108 ± 0.9 µM | IC50 [2, 12]: 94 to 110 µM | IC50 [2, 7]: 108 µM | IC50 [3, 18]: 126 ± 1.8 µM | IC50 [3, 8]: 126 µM | IC50 [3, 13]: 116 ± 1.8 µM | IC50 [3, 9]: 116 µM

COc1cc(/C=C/CO)ccc1O [compound 21, (E)-coniferol]
IC50 [2, 10]: 111 ± 1.5 µM | IC50 [2, 6]: 111 µM | IC50 [2, 11]: 84.6 ± 1.9 µM | IC50 ([2]; Homo sapiens, HCT-116, 72 h, 72 h, range given for the group, unit inferred, read-out: IC50 against HCT-116 cells at 72 h (moderately active group)): 75 to 85 µM | IC50 [2, 7]: 84.6 µM | IC50 [3, 13]: 113 ± 1.9 µM | IC50 [3, 9]: 113 µM | IC50 [4, 14]: 112 ± 2 µM | IC50 [4, 15]: 116 µM | IC50 [4, 16]: 96.4 ± 2.9 µM | IC50 [4, 17]: 96.4 µM

COc1cc(C(O)C(CO)Oc2c(OC)cc(C(O)C(O)CO)cc2OC)ccc1O (stereo not drawn) [compound 25, (erythro,erythro)-1-[4-[2-hydroxy-2-(4-hydroxy-3-methoxyphenyl)-1-(hydroxymethyl)ethoxy]-3,5-dimethoxyphenyl]-1,2,3-propanetriol]
IC50 [1, 5]: 97.8 ± 24 µM

COc1cc(C(O)C(CO)Oc2ccc(C(O)C(O)CO)cc2OC)ccc1O (stereo not shown) [compound 27]
IC50 [1, 5]: 164 ± 15.2 µM

COc1cc(C(O)C(CO)Oc2ccc(C(O)C(O)CO)cc2OC)ccc1O (stereo not shown) [compound 28]
IC50 [1, 5]: 814 ± 37.7 µM

COc1cc([C@@H](O)[C@@H](CO)Oc2ccc(CCCO)cc2OC)ccc1O [compound 29, threo-guaiacylglycerol-β-O-4′-dihydroconiferyl alcohol]
IC50 [1, 5]: 139 ± 13.3 µM

COc1cc(C(O)C(CO)Oc2c(OC)cc(CCCO)cc2OC)ccc1O (stereo not drawn) [compound 30, erythro-1-(4-hydroxy-3-methoxyphenyl)-2-[4-(3-hydroxypropyl)-2,6-dimethoxyphenoxy]-1,3-propanediol]
IC50 [1, 5]: 904 µM

Oc1ccc(O)c(O)c1 [compound 52, 4-hydroxycatechol]
IC50 [2, 10]: 95 ± 3.4 µM | IC50 [2, 11]: 57.7 ± 3.4 µM | IC50 [2, 12]: 42 to 67 µM | IC50 [3, 18]: 110 ± 2.3 µM | IC50 [3, 13]: 100 ± 1.5 µM | IC50 [4, 14]: 89.2 ± 1.9 µM | IC50 [4, 16]: 78.6 ± 1.2 µM

COc1cc(CCCO)ccc1OC(CO)C(O)c1ccc(OC2OC(C)C(O)C(O)C2O)c(OC)c1 (stereo not shown) [compound 55]
IC50 [2, 10]: 119 ± 1.4 µM | IC50 [2, 11]: 104 ± 1.7 µM | IC50 [2, 12]: 94 to 110 µM | IC50 [3, 18]: 128.2 ± 1.1 µM | IC50 [3, 13]: 121 ± 1.3 µM

O=C(O[C@H]1CO[C@H](CO)[C@@H](O)[C@@H]1O)c1cc(O)c(O)c(O)c1 [compound 72, ginnalin-C]
HCT-116 48 h IC50 ([2]; 48 h, ginnalins): 27.0 ± 1.9 µg/mL | HCT-116 72 h IC50 ([2]; 72 h, ginnalins): 22.3 ± 2.4 µg/mL | IC50 ([2]; Table 6 maple compounds, 72 h, unit inferred, read-out: HCT-116 72 h(IC50)): 70.7 µM | IC50 ([2]; read-out: HCT-116 48 h(IC50), Table 6 maple compounds, 48 h, unit inferred): 86.5 µM | HT-29 48 h IC50 ([3]; 48 h, ginnalins): 33.8 ± 2.0 µg/mL | HT-29 72 h IC50 ([3]; 72 h, ginnalins): 30.1 ± 1.3 µg/mL | IC50 ([3]; Table 6 maple compounds, 72 h, unit inferred, read-out: HT-29 72 h(IC50)): 95.4 µM | IC50 ([3]; read-out: HT-29 48 h(IC50), Table 6 maple compounds, 48 h, unit inferred): 107 µM | Caco-2 48 h IC50 ([4]; 48 h, ginnalins): 35.0 ± 1.4 µg/mL | Caco-2 72 h IC50 ([4]; 72 h, ginnalins): 29.8 ± 1.2 µg/mL | IC50 ([4]; Table 6 maple compounds, 72 h, unit inferred, read-out: Caco-2 72 h(IC50)): 94.4 µM | IC50 ([4]; read-out: Caco-2 48 h(IC50), Table 6 maple compounds, 48 h, unit inferred): 111 µM

O=C(O)/C=C/c1ccc(O)cc1 [p-Coumaric Acid]
IC50 [2, 7]: 124 µM

catechaldehyde [compound 14]
IC50 [1, 5]: 694 ± 110 µM

catechol [compound 23]
IC50 [1, 5]: 10100 ± 1670 µM
